In patent US20240140931A1, “TRICYCLIC COMPOUNDS AND USES THEREOF” (HUTCHMED LIMITED, priority 2021, published 2024):

Legend:
[1] = test system: pERK1/2 (Thr202/Tyr204) in Miapaca2 cells; assay: Assay of intracellular pERK1/2 (Thr202/Tyr204) phosphorylation; format: cell-based; details: pERK1/2 (Thr202/Tyr204) HTRF
Outline: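 HTRF read-out (665/615 nm) of phospho-ERK1/2 Thr202/Tyr204 in lysates from Miapaca2 cells exposed for 2 h to 3-fold compound dilutions at 0.5% final DMSO. Controls: lysis buffer without cells and DMSO-treated cells; IC50 from four-parameter logistic fit.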

[2] = biological target: Human full-length SHP2 recombinant protein (Homo sapiens (Human), UniProt Q06124); assay: Assay of full-length SHP2 phosphatase activity; format: biochemical; details: DiFMUP substrate, with activating peptide
Sequence of Human full-length SHP2 recombinant protein (Q06124 whole entry): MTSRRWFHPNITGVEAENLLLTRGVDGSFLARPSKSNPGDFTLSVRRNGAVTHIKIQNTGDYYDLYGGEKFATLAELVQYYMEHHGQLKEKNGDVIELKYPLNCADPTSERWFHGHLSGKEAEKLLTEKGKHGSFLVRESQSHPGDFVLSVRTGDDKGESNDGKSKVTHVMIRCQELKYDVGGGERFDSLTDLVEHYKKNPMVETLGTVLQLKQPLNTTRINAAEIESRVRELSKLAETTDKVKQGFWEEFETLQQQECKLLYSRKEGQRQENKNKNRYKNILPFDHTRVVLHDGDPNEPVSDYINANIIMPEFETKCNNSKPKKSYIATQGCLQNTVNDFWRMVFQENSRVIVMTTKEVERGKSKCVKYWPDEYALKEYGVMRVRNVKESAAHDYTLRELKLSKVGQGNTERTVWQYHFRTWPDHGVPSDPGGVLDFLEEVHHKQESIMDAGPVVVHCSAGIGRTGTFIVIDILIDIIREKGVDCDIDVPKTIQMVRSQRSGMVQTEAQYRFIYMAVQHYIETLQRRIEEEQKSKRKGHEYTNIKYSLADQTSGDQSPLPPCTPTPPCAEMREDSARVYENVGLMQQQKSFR
Outline: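 Readout: DiFMUP hydrolysis fluorescence (355/460 nm) after 60 min at 25 °C, following 30 min RT preincubation of compound with peptide-activated full-length human SHP2. Controls were 1% DMSO with or without enzyme; IC50 by four-parameter logistic fit.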

SMILES | IC50 ([1]; Homo sapiens, MIA PaCa-2, 2 h) [nM] | IC50 [2] [nM] | IC50 ([1]; 2 hours) [nM]
C#Cc1ccc2c(c1)[C@@H](N)C1(CCN(c3cc(=O)n(-c4ccc(C#N)cc4Cl)c(C)n3)CC1)C2 [Compound 94] | 155 | 7 | –
COCC#Cc1ccc2c(c1)[C@@H](N)C1(CCN(c3nc(C)n(-c4cccc(Cl)c4Cl)c(=O)c3C)CC1)C2 [Compound 36] | 33 | 6 | –
COCC#Cc1ccc2c(c1)[C@@H](N)C1(CCN(c3cc(=O)n(-c4ccc(F)c(Cl)c4Cl)c(C)n3)CC1)C2 (atropisomer, axis not shown) [Compound 125] | – | 96 | 175
CNC(=O)C#Cc1ccc2c(c1)[C@@H](N)C1(CCN(c3cc(=O)n(-c4ccc(F)c(F)c4Cl)c(C)n3)CC1)C2 (atropisomer, axis not shown) [Compound 210] | – | 52 | 527
C#Cc1ccc2c(c1)[C@@H](N)C1(CCN(c3nc(C)n(-c4ccc(OCC)cc4Cl)c(=O)c3C)CC1)C2 [Compound 92] | 117 | 11 | –
CC#Cc1ccc2c(c1)[C@@H](N)C1(CCN(c3cnc(Sc4ccnc(N)c4Cl)c(N)n3)CC1)C2 [Compound 131] | 4 | 3 | –
COCC#Cc1ccc2c(c1)[C@@H](N)C1(CCN(c3cc(=O)n(-c4ccc(F)c(Cl)c4Cl)c(C)n3)CC1)C2 (atropisomer, axis not shown) [Compound 124] | – | 1.3 | 15
C#Cc1ccc2c(c1)[C@@H](N)C1(CCN(c3cc(=O)n(-c4cccc(Cl)c4F)c(C)n3)CC1)C2 (atropisomer, axis not shown) [Compound 65] | – | 2 | 60
C#Cc1ccc2c(c1)[C@@H](N)C1(CCN(c3cc(=O)n(-c4ccc(OC)c(Cl)c4Cl)c(C)n3)CC1)C2 [Compound 211] | 161 | 17 | –
C#Cc1ccc2c(c1)[C@@H](N)C1(CCN(c3cc(=O)n(-c4ccc(F)c(OC)c4F)c(C)n3)CC1)C2 (atropisomer, axis not shown) [Compound 89] | – | 15 | 153
C#Cc1ccc2c(c1)[C@@H](N)C1(CCN(c3cc(=O)n(-c4ccc(F)c(Cl)c4Cl)c(C)n3)CC1)C2 (atropisomer, axis not shown) [Compound 108] | – | 1 | 7
COCC#Cc1ccc2c(c1)[C@@H](N)C1(CCN(c3ncc(-c4cn(C)c5ncccc45)c4nccn34)CC1)C2 [Compound 120] | 385 | 45 | –
Cc1nc(N2CCC3(CC2)Cc2ccc(C#CCN(C)C)cc2[C@H]3N)cc(=O)n1-c1cc(Cl)ccc1Cl [Compound 84] | > 1000 | 67 | –
COCCSc1ccc2c(c1)[C@@H](N)C1(CCN(c3cc(=O)n(-c4cccc(Cl)c4Cl)c(C)n3)CC1)C2 [Compound 99] | 40 | 2 | –
CNC(=O)C#Cc1ccc2c(c1)[C@@H](N)C1(CCN(c3cc(=O)n(-c4ccc(F)c(OC)c4Cl)c(C)n3)CC1)C2 (atropisomer, axis not shown) [Compound 200] | – | 25 | 512
C#Cc1ccc2c(c1)[C@@H](N)C1(CCN(c3cc(=O)n(-c4cccc(Cl)c4)c(C)n3)CC1)C2 [Compound 17] | 203 | 18 | –
CNCC#Cc1ccc2c(c1)[C@@H](N)C1(CCN(c3cc(=O)n(-c4cccc(Cl)c4Cl)c(C)n3)CC1)C2 [Compound 67] | 39 | 1 | –
CN(C)CC#Cc1ccc2c(c1)[C@@H](N)C1(CCN(c3ncc(Sc4ccnc(N)c4Cl)c4nccn34)CC1)C2 [Compound 71] | 22 | 1 | –
C#Cc1ccc2c(c1)[C@@H](N)C1(CCN(c3cc(=O)n(-c4cccc(OC)c4Cl)c(C)n3)CC1)C2 (atropisomer, axis not shown) [Compound 111] | – | 2 | 15
C#Cc1ccc2c(c1)[C@@H](N)C1(CCN(c3cc(=O)n(-c4ccc(F)c(Cl)c4)c(C)n3)CC1)C2 [Compound 45] | 261 | 11 | –
C#Cc1ccc2c(c1)[C@@H](N)C1(CCN(c3cc(=O)n(-c4cccc(F)c4Cl)c(C)n3)CC1)C2 [Compound 61] | 78 | 3 | –
COCC#Cc1ccc2c(c1)[C@@H](N)C1(CCN(c3nc(C)n(-c4cccc(Cl)c4Cl)c(=O)c3F)CC1)C2 [Compound 169] | 125 | 6 | –
C#Cc1ccc2c(c1)CC1(CCN(c3ncc(Sc4ccnc(N)c4Cl)c4nccn34)CC1)[C@@H]2N [Compound 1, (S)-1′-(8-((2-amino-3-chloropyridin-4-yl)thio)imidazo[1,2-c]pyrimidin-5-yl)-5-ethynyl-1,3-dihydrospiro[indene-2,4′-piperidin]-1-amine] | 18 | 2 | –

SMILES | IC50 ([1]; Homo sapiens, MIA PaCa-2, 2 h) [nM] | IC50 [2] [nM] | IC50 ([1]; 2 hours) [nM]
C#Cc1ccc2c(c1)[C@@H](N)C1(CCN(c3nc(C)n(-c4ccc(F)cc4Cl)c(=O)c3C)CC1)C2 (atropisomer, axis not shown) [Compound 102] | – | 2 | 12
C#Cc1ccc2c(c1)CC1(CCN(c3cc(=O)n(-c4cccc(Cl)c4)c(C)n3)CC1)[C@@H]2N [Compound 26] | > 3000 | 158 | –
COCC#Cc1ccc2c(c1)[C@@H](N)C1(CCN(c3ncc(Sc4ccnc(N)n4)nc3CO)CC1)C2 [Compound 87, (S)-(3-(1-amino-6-(3-methoxyprop-1-yn-1-yl)-1,3-dihydrospiro[indene-2,4′-piperidin]-1′-yl)-6-((2-aminopyrimidin-4-yl)thio)pyrazin-2-yl)methanol] | 2 | 1 | –
NC(=O)C#Cc1ccc2c(c1)[C@@H](N)C1(CCN(c3ncc(Sc4ccnc(N)c4Cl)c4nccn34)CC1)C2 [Compound 128] | 15 | 0.9 | –
CCNC(=O)C#Cc1ccc2c(c1)[C@@H](N)C1(CCN(c3cnc(Sc4ccnc(N)c4Cl)c(C#N)n3)CC1)C2 [Compound 272] | 252 | 17 | –
C#Cc1ccc2c(c1)[C@@H](N)C1(CCN(c3cc(=O)n(-c4ccnc(Cl)c4)c(C)n3)CC1)C2 [Compound 60] | > 1000 | 13 | –
C#Cc1ccc2c(c1)[C@@H](N)C1(CCN(c3cc(=O)n(-c4ccccc4C(F)(F)F)c(C)n3)CC1)C2 [Compound 107] | > 1000 | 739 | –
C#Cc1ccc2c(c1)[C@@H](N)C1(CCN(c3cc(=O)n(-c4cccc(C#N)c4Cl)c(C)n3)CC1)C2 [Compound 34] | – | 4 | 244
C#Cc1ccc2c(c1)[C@@H](N)C1(CCN(c3cc(=O)n(-c4ccccc4Cl)c(C)n3)CC1)C2 [Compound 42, (S)-6-(1-amino-6-ethynyl-1,3-dihydrospiro[indene-2,4′-piperidin]-1′-yl)-3-(2-chlorophenyl)-2-methylpyrimidin-4(3H)-one] | 133 | 6 | –
CC#Cc1ccc2c(c1)[C@@H](N)C1(CCN(c3cc(=O)n(-c4ccc(F)c(OC)c4Cl)c(C)n3)CC1)C2 (atropisomer, axis not shown) [Compound 208] | – | 58 | 187
COCC#Cc1ccc2c(c1)[C@@H](N)C1(CCN(c3cc(=O)n(-c4ccc(F)c(OC)c4F)c(C)n3)CC1)C2 [Compound 82] | 43 | 2 | –
C#Cc1ccc2c(c1)[C@@H](N)C1(CCN(c3cc(=O)n(-c4ccc(F)c(Cl)c4Cl)c(C)n3)CC1)C2 (atropisomer, axis not shown) [Compound 109] | – | 118 | 259
CNCC#Cc1ccc2c(c1)[C@@H](N)C1(CCN(c3ncc(Sc4ccnc(N)c4Cl)c4nccn34)CC1)C2 [Compound 91] | 17 | 0.7 | –
C#Cc1ccc2c(c1)[C@@H](N)C1(CCN(c3ncc(Sc4ccnc(N)c4Cl)c4nccn34)CC1)C2 [Compound 8] | 8 | 3 | –
C#Cc1ccc2c(c1)[C@@H](N)C1(CCN(c3cc(=O)n(-c4cccc(Cl)c4F)c(C)n3)CC1)C2 (atropisomer, axis not shown) [Compound 66] | – | 24 | 271
C#Cc1ccc2c(c1)[C@@H](N)C1(CCN(c3cc(=O)n(-c4ccc(C#N)c(Cl)c4Cl)c(C)n3)CC1)C2 (atropisomer, axis not shown) [Compound 192] | – | > 1000 | > 1000
C#Cc1ccc2c(c1)[C@@H](N)C1(CCN(c3cc(=O)n(-c4cccc(OC)c4)c(C)n3)CC1)C2 [Compound 43] | 117 | 6 | –
C#Cc1ccc2c(c1)CC1(CCN(c3nc(N)c(-c4cn(C)c5ncccc45)c4nccn34)CC1)[C@@H]2N [Compound 25] | 151 | 12 | –
C#Cc1ccc2c(c1)[C@@H](N)C1(CCN(c3cc(=O)n(-c4ccc(F)c(OC)c4Cl)c(C)n3)CC1)C2 (atropisomer, axis not shown) [Compound 162] | – | 34 | 155
COCC#Cc1ccc2c(c1)[C@@H](N)C1(CCN(c3ncc(Sc4ccnc(N)n4)c4nccn34)CC1)C2 [Compound 100] | 12 | 2 | –
C#Cc1ccc2c(c1)[C@@H](N)C1(CCN(c3cc(=O)n(-c4cccc(C(F)(F)F)c4Cl)c(C)n3)CC1)C2 (atropisomer, axis not shown) [Compound 118] | – | 3 | 40
C#Cc1ccc2c(c1)[C@@H](N)C1(CCN(c3cc(=O)n(-c4ccc(F)c(OC)c4)c(C)n3)CC1)C2 [Compound 29] | 489 | 25 | –
C#Cc1ccc2c(c1)[C@@H](N)C1(CCN(c3cc(=O)n(-c4cccc(OC)c4Cl)c(C)n3)CC1)C2 (atropisomer, axis not shown) [Compound 110] | – | 249 | 959
